Six compounds from US5945400A, “Nucleic acid-containing composition, preparation and use thereof” (Rhone-Poulenc Rorer SA, priority 1995, dated 1999) can be followed below.

Series [1] relates to tumours of type 3LL (Lewis Lung carcinoma). The experiment in a line: In vivo transfer into tumour cells (3LL tumours), luciferase activity. On the set-up: species or system mice. To be noted: no peptide. As to the method: The corresponding tests are carried out on adult (>8 weeks) female C57/BL mice carrying tumours of type 3LL (Lewis Lung carcinoma) obtained by passing fragments of tumour from animal to animal, implanted under the skin of the flank.
As regards the solutions injected, they are prepared as follows: the DNA is first dissolved in the buffer, the peptide is then optionally added and, after 20 minutes, a solution of cationic lipids at high concentration (20 or 40 mM) is added to the mixture. After addition of all these products, the mixture contains, besides the DNA, the peptide and the cationic lipid, 150 mM NaCl, 5% D-glucose and 5 mM MES pH 6.2. In the case of the last two series with lipopolyamine C (RPR 120 535), the injection vehicle is 75 mM NaCl and 150 mM NaCl, 5% D-glucose respectively. The injection is made 20 to 30 minutes after the solution has been prepared.
Each transfecting composition (see Tables 9 and 10 for their respective specificities) is injected into the tumour 7 days after implantation, the mouse being anaesthetized with a ketamine 130 mg/kg+xylazine (4 mg/kg) mixture.
Two days after the injection, the tumour tissue is removed, weighed and then chopped up and ground in 500 μl of lysis buffer (Promega cell lysis buffer E153 A). After centrifugation (20,000 g for 10 minutes), 10 μl are taken and used to evaluate the luciferase activity by measuring the total light emission obtained after mixing with 50 μl of reagent (Promega luciferase assay substrate) in a Lumat LB 9501 luminometer (Berthold), with integration over 10 seconds.
The resulting activity is expressed as RLUs (relative light units) estimated in the entire tumour lysis supernatant, or as RLU per μg of DNA injected.

The test system of another series is 3LL cells. The experiment in a line: In vitro transfer of nucleic acid into 3LL cells, luciferase activity. The series is classed as cell-based. Particulars: 0.5 μg DNA, 0.5 μg peptide, 75 mM NaCl. As to the method:
A mixture of 10 μl composed of the following is prepared: 0.5 μg of pCMV-luc plasmid DNA, 0.5 μg of PR1 or PR2 a compound according to the invention, in a solution of 75 mM NaCl final lipopolyamine C (RPR 120535) in charge ratios as indicated in each of the tests listed in Table 11 below. 1×10^5 3LL cells (in 250 μl of DMEM culture medium with 10% foetal calf serum) are incubated with the above mixture at 37° C. under a 5% CO2 atmosphere for 4 hours. 500 μl of culture medium are added and the cells are recultured. The following day, the cells are washed and recultured for 24 hours in the same medium containing 10% foetal calf serum. The cell carpet is then lysed in 100 μl of lysis buffer (Promega). The luciferase activity is measured by adding 50 μl of substrate (Promega). The reading is taken on an LB luminometer by cumulating the RLUs (relative light nits) over 10 seconds.

A further series relates to NIH3T3 cells. Briefly: Variation of compound/DNA ratio in the presence of lipopolyamine A, luciferase activity. Particulars: Compound/DNA ratio 0. Format: cell-based. As to the method: 1. A mixture of 10 μl composed of the following is prepared:
0.55 μg of pCNV-luc plasma DNA and a compound according to the invention, in the ratio indicated, in 150 mM NaCl buffer solution,
1,3-bis (3-aminopropylamino) -2-propyl (dioctadecyl-carbamoylmethoxy)acetate in the charge ratios indicated.
2. 5·10^4 cells from NIH3T3 lines are incubated with the above mixture at 37° C., under an atmosphere of 5% CO2 for 4 hours. The cells are then washed and recultured for 48 hours in a medium containing 10% serum (DMEM 10% SVF). The cell carpet is then lysed, 45 hours after the transfection, in 100 μl of lysis buffer (Promega), recovered and then centrifuged at 20,000 g for 5 minutes. The luciferase activity is measured on 10 μl of the supernatant, adding 50 μl of substrate (Promega). The reading is taken on a Berthold lumat 9501® luminometer, cumulating the RLUs (relative light units) over 10 seconds.

A short description of another series: physchem. Format: physicochemical. As to the method:
This oligopeptide was synthesized in the form of the trifluoroacetic acid salt using an Applied Biosystem 431A peptide synthesizer, on an HMP resin (Applied Biosystem) and according to an FMOC strategy. After the synthesis, the peptide was released from the resin by treatment for 90 minutes in the presence of 1/19 water/TFA solution. After filtration, the solution is concentrated on a rotary evaporator and the peptide is then precipitated twice, by addition of tert-butyl methyl ether, from a solution in TFA. The final pellet is washed with tert-butyl methyl ether and then dried. The peptide is dissolved in 5 ml of water, filtered and purified by reverse-phase HPLC on a C18 100 A column (Biorad RSL). The peptide is purified by with the aid of a gradient of 0 to 25% of acetonitrile, 0.07% TFA in water 0.07% TFA. The purity of the peptide obtained is greater than 95% and its solubility in water is 100 mg/ml.
This oligopeptide was synthesized in the form of the trifluoroacetic acid salt according to the procedure described above, using 2/40/3/1/2 (v/v) water/TFA/phenol/ethanedithiol/thioanisole solution for the cleavage. The purity of the peptide obtained is greater than 95% and its solubility in water is 100 mg/ml at pH 2.1.
These oligopeptides are synthesized in the form of the trifluoroacetic acid salts according to the procedure described above. To do this, the resin is divided into two batches. A first batch intended for the synthesis of H is treated for the cleavage with 40/3/1/2/2 (v/v) TFA/phenol/ethanedithiol/thioanisole/water solution. The purity of the peptide obtained is greater than 90% and its solubility in water is 10 mg/ml at pH 2.1. The synthesis is continued on the second batch of resin so as to obtain nls-βAla-H. The cleavage solution used is identical to the previous one. The purity of the peptide obtained is greater than 95% and its solubility in water is 10 mg/ml at pH 2.1.

What is called solubility is the dissolved amount per volume that the medium holds. Higher therefore signals a readily soluble substance.

In brackets after ≈: the same amount, converted by molar mass. No end group written: not given here.

As to `CCCCCCCCCCCCCCCCCCN(CCCCCCCCCCCCCCCCCC)C(=O)CNC(=O)CNCCCNCCCCNCCCN` [Lipopolyamine C, H2 N(CH2)3 NH(CH2)4 NH(CH2)3 NHCH2 COGlyN[(CH2)18]2], the “Result, RLU/tumour average” value in series [1] (18.75 μg DNA/tumour, 0.25 μg/μl, cationic lipid C 2 nmol/μg DNA, vehicle 75 mM NaCl) was 222 700 RLU/tumour; in series [1] (20 μg DNA/tumour, 0.5 μg/μl, cationic lipid C 4 nmol/μg DNA, vehicle 150 mM NaCl, 5% D-glucose), 806 467 RLU/tumour. The luciferase activity with 3LL cells (Table 11, Lipopolyamine C/DNA charge ratio 4x) is given as 107 289 RLU; in the series with 3LL cells (Table 11, Lipopolyamine C/DNA charge ratio 6x) it was 77 396 RLU; with 3LL cells (Table 11, Lipopolyamine C/DNA charge ratio 8x), 14 512 RLU; with 3LL cells (Table 12, Lipopolyamine C/DNA charge ratio 4x) it was 12 037 RLU; with 3LL cells (Table 12, Lipopolyamine C/DNA charge ratio 6x) it was 901 RLU; with 3LL cells (Table 12, Lipopolyamine C/DNA charge ratio 8x), 328 RLU.
With `CCCCCCCCCCCCCCCCCCN(CCCCCCCCCCCCCCCCCC)C(=O)COCC(=O)OC(CNCCCN)CNCCCN` [lipopolyamine A, d,1-3-bis(3-aminopropylamino)-2-propyl (dioctadecyl-carbamoylmethoxy)acetate], the results for the luciferase activity with NIH3T3 cells (lipopolyamine A 3x), with NIH3T3 cells (lipopolyamine A 6x) and in the series with NIH3T3 cells (lipopolyamine A NH2/DNA phosphates 1.8x) were 8.9 10^6 RLU, 6.2 10^6 RLU and 3.9 10^6 RLU, respectively. Also, the “Result, RLU/tumour average” value is given as 88 712 RLU/tumour in series [1] (7.5 μg DNA/tumour, 0.5 μg/μl, cationic lipid A 3 nmol/μg DNA); 142 300 RLU/tumour in series [1] (20 μg DNA/tumour, 2 μg/μl, cationic lipid A 1.8 nmol/μg DNA); 99 775 RLU/tumour in series [1] (30 μg DNA/tumour, 2 μg/μl, cationic lipid A 3 nmol/μg DNA).
Turning to `CC(C)[C@H](NC(=O)[C@H](CCCCN)NC(=O)[C@H](CCCNC(=N)N)NC(=O)[C@H](CCCCN)NC(=O)[C@H](CCCCN)NC(=O)[C@H](CCCCN)NC(=O)[C@@H]1CCCN1)C(=O)O` [nls, ProLysLysLysArgLysVal], the solubility in “physchem” (pH 2.1, water) came out at 100 mg/mL (≈ 113 mM).
The same measure, in the same setting: the result for `CC(C)[C@H](NC(=O)[C@H](CCCCN)NC(=O)[C@H](CCCNC(=N)N)NC(=O)[C@H](CCCCN)NC(=O)[C@H](CCCCN)NC(=O)[C@H](CCCCN)NC(=O)[C@@H]1CCCN1)C(=O)NCCC(=O)N[C@@H](CCCCN)C(=O)N[C@H](C(=O)N1CCC[C@H]1C(=O)N[C@@H](CCCCN)C(=O)N[C@@H](CCCCN)C(=O)N[C@@H](C)C(=O)N[C@@H](CCCCN)C(=O)N[C@@H](CCCCN)C(=O)N1CCC[C@H]1C(=O)N[C@@H](CCCCN)C(=O)N[C@H](C(=O)N1CCC[C@H]1C(=O)N[C@@H](CCCCN)C(=O)N[C@@H](CCCCN)C(=O)N[C@@H](C)C(=O)N[C@@H](CCCCN)C(=O)N[C@@H](CCCCN)C(=O)N1CCC[C@H]1C(=O)O)[C@@H](C)O)[C@@H](C)O` [nls-H, ProLysLysLysArgLysVal-βAlaLysThrProLysLysAlaLysLysProLysThrProLysLysAlaLysLysPro (COOH) (SEQ ID No.9)] reads 10 mg/mL (≈ 3.37 mM).
In the series “physchem” (water), “ATPAKKAAATPAKKAA [N, AlaThrProAlaLysLysAlaAlaAlaThrProAlaLysLysAlaAla (COOH) (SEQ ID No.:3)]” gave a solubility of 100 mg/mL.
Compound “KTPKKAKKPKTPKKAKKP [H, LysThrProLysLysAlaLysLysProLysThrProLysLysAlaLysLysPro (COOH) (SEQ ID No.:4)]” displayed a solubility in “physchem” (pH 2.1, water) of 10 mg/mL.
